In this test the test system is L1210 leukemia ip in BDF1 mice, survival T/C. The test is described as follows: NCI In Vivo Anticancer Drug Screen. Data for tumor model L1210 Leukemia (intraperitoneal) in B6D2F1 (BDF1) mice. The following applies: endpoint: mean survival time, higher = longer survival. The method in brief: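 Survival endpoint. Drug-treated group vs vehicle group, expressed as T divided by C. Tumor passaged by transplantation.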

Where [1] appears, read: dose: 100.0 mg/kg/injection, schedule: Q01DX009 (ip), vehicle: saline.
[2] abbreviates: dose: 200.0 mg/kg/injection, schedule: Q01DX009 (ip), vehicle: saline.
Where [3] appears, read: dose: 400.0 mg/kg/injection, schedule: Q01DX009 (ip), vehicle: saline.
[4] abbreviates: dose: 50.0 mg/kg/injection, schedule: Q01DX001 (ip), vehicle: saline.
Setting [5] is: dose: 100.0 mg/kg/injection, schedule: Q01DX001 (ip), vehicle: saline.
Setting [6] is: dose: 200.0 mg/kg/injection, schedule: Q01DX001 (ip), vehicle: saline.
Where [7] appears, read: dose: 400.0 mg/kg/injection, schedule: Q01DX001 (ip), vehicle: saline.
The mark [8] stands for this setting: dose: 100.0 mg/kg/injection, schedule: Q01DX009 (ip), vehicle: Klucel (hydroxypropylcellulose) (HPC).
Where [9] appears, read: dose: 100.0 mg/kg/injection, schedule: Q04DX003 (ip), vehicle: Klucel (hydroxypropylcellulose) (HPC).
Where [10] appears, read: dose: 200.0 mg/kg/injection, schedule: Q01DX009 (ip), vehicle: Klucel (hydroxypropylcellulose) (HPC).
The mark [11] stands for this setting: dose: 200.0 mg/kg/injection, schedule: Q04DX003 (ip), vehicle: Klucel (hydroxypropylcellulose) (HPC).
The mark [12] stands for this setting: dose: 400.0 mg/kg/injection, schedule: Q01DX009 (ip), vehicle: Klucel (hydroxypropylcellulose) (HPC).
Setting [13] is: dose: 400.0 mg/kg/injection, schedule: Q04DX003 (ip), vehicle: Klucel (hydroxypropylcellulose) (HPC).
Where [14] appears, read: dose: 100.0 mg/kg/injection, schedule: Q04DX002 (ip), vehicle: Klucel (hydroxypropylcellulose) (HPC).

Each structure is given as a SMILES string. Several values for one entry are separate records, joined by “and”; a condition that tells them apart may be missing. Identical values can stand only once. Inconclusive results and toxic doses are left out.

Consider `Nc1c(S(=O)(=O)O)ccc2c1C(=O)c1ccccc1C2=O`, for which the T/C runs as follows: under setting [1], 90 % of control; (dose: 100.0 mg/kg/injection, schedule: Q04DX003 (ip), vehicle: saline) 101 % of control; under setting [2], 97 % of control; (dose: 200.0 mg/kg/injection, schedule: Q04DX003 (ip), vehicle: saline) 96 % of control; under setting [3], 92 % of control; (dose: 400.0 mg/kg/injection, schedule: Q04DX003 (ip), vehicle: saline) 91 % of control.
Take `Cc1cc2c(cc1C)N(C(=O)CCl)CC(=O)N2`: the T/C was 95 % of control (dose: 9.37 mg/kg/injection, schedule: Q01DX009 (ip), vehicle: acetone); 93 % of control (dose: 18.75 mg/kg/injection, schedule: Q01DX009 (ip), vehicle: acetone); 96 % of control (dose: 18.75 mg/kg/injection, schedule: Q04DX003 (ip), vehicle: saline); 93 % of control (dose: 37.5 mg/kg/injection, schedule: Q01DX009 (ip), vehicle: acetone); 98 % of control (dose: 37.5 mg/kg/injection, schedule: Q04DX003 (ip), vehicle: saline); 113 % of control (dose: 75.0 mg/kg/injection, schedule: Q01DX001 (ip), vehicle: saline). Moreover, the T/C (dose: 75.0 mg/kg/injection, schedule: Q04DX003 (ip), vehicle: saline) was 93 % of control.
`CC(O)CCc1ccc(OC(=O)c2ccccc2)cc1` (configuration not stated): the T/C by setting is: under setting [4], 101 % of control; under setting [5], 92 % of control; under setting [6], 101 % of control; under setting [7], 92 % of control.
`CC(=O)OCC1OC(n2cnc([N+](=O)[O-])c2C#N)C(OC(C)=O)C1OC(C)=O` (configuration not stated): the T/C was 102 % of control under setting [4], 108 % of control under setting [5], 102 % of control under setting [6] and 92 % of control under setting [7].
As for `CC(=O)c1cc(C)c(C)c(C)c1`, the T/C was 96 % of control under setting [5], 96 % of control under setting [6] and 91 % of control under setting [7].
With `CC(=O)Oc1cc(C(C)C)c(OCCN(C)C)cc1C`, the T/C by setting is: (dose: 6.25 mg/kg/injection, schedule: Q01DX009 (ip), vehicle: saline) 94 % of control; (dose: 12.5 mg/kg/injection, schedule: Q01DX009 (ip), vehicle: saline) 98 % of control; (dose: 25.0 mg/kg/injection, schedule: Q01DX009 (ip), vehicle: saline) 100 % of control.
As to `CCOc1ccc(/C=N/NC(=O)c2cccc3ccccc23)cc1OCC`, the T/C reads like this: under setting [5], 90 % of control; under setting [7], 90 % of control.
As for `CCCC(C)(COC(N)=O)COC(=O)NC(C)C` (configuration not stated), the T/C is 102 % of control (dose: 25.0 mg/kg/injection, schedule: Q01DX009 (ip), vehicle: Klucel (hydroxypropylcellulose) (HPC)); 101 % of control (dose: 25.0 mg/kg/injection, schedule: Q04DX003 (ip), vehicle: Klucel (hydroxypropylcellulose) (HPC)); 97 % of control (dose: 50.0 mg/kg/injection, schedule: Q01DX009 (ip), vehicle: Klucel (hydroxypropylcellulose) (HPC)); 92 % of control (dose: 50.0 mg/kg/injection, schedule: Q04DX003 (ip), vehicle: Klucel (hydroxypropylcellulose) (HPC)); 94 % of control under setting [8]; 101 % of control under setting [9]. Moreover, the T/C is 97 % of control under setting [10], 95 % of control under setting [11], 88 % of control under setting [12] and 101 % of control under setting [13].
As for `CC(=O)c1ccc(N=Nc2ccc(N(C)C)cc2)cc1`, the T/C was 100 % of control and 110 % of control (dose: 100.0 mg/kg/injection, schedule: Q01DX009 (ip), vehicle: carboxymethylcellulose (CMC)); 100 % of control (dose: 100.0 mg/kg/injection, schedule: Q04DX002 (ip), vehicle: carboxymethylcellulose (CMC)); 100 % of control (dose: 100.0 mg/kg/injection, schedule: Q04DX003 (ip), vehicle: carboxymethylcellulose (CMC)); 98 % of control and 102 % of control (dose: 200.0 mg/kg/injection, schedule: Q01DX009 (ip), vehicle: carboxymethylcellulose (CMC)); 93 % of control (dose: 200.0 mg/kg/injection, schedule: Q04DX002 (ip), vehicle: carboxymethylcellulose (CMC)); 101 % of control (dose: 200.0 mg/kg/injection, schedule: Q04DX003 (ip), vehicle: carboxymethylcellulose (CMC)). Besides, the T/C was 95 % of control and 90 % of control (dose: 400.0 mg/kg/injection, schedule: Q01DX009 (ip), vehicle: carboxymethylcellulose (CMC)); 88 % of control (dose: 400.0 mg/kg/injection, schedule: Q04DX002 (ip), vehicle: carboxymethylcellulose (CMC)); 101 % of control (dose: 400.0 mg/kg/injection, schedule: Q04DX003 (ip), vehicle: carboxymethylcellulose (CMC)).
For `CC(O)C(O)C(N)CC=O` (configuration not stated), the T/C is, setting by setting: (dose: 5.0 mg/kg/injection, schedule: Q01DX001 (ip), vehicle: saline) 101 % of control; (dose: 10.0 mg/kg/injection, schedule: Q01DX001 (ip), vehicle: saline) 113 % of control; (dose: 20.0 mg/kg/injection, schedule: Q01DX001 (ip), vehicle: saline) 97 % of control; (dose: 40.0 mg/kg/injection, schedule: Q01DX001 (ip), vehicle: saline) 98 % of control; under setting [1], 102 % of control; under setting [2], 97 % of control. Also, under setting [3], the T/C is 97 % of control.
For `COc1ccc(/C=N/Nc2nnc(N/N=C/c3ccc(OC)c(O)c3)c3ccccc23)cc1O`, the T/C (dose: 50.0 mg/kg/injection, schedule: Q01DX001 (ip), vehicle: carboxymethylcellulose (CMC)) was 103 % of control; the T/C (dose: 100.0 mg/kg/injection, schedule: Q01DX001 (ip), vehicle: carboxymethylcellulose (CMC)) is 103 % of control; the T/C (dose: 200.0 mg/kg/injection, schedule: Q01DX001 (ip), vehicle: carboxymethylcellulose (CMC)) was 103 % of control; the T/C (dose: 400.0 mg/kg/injection, schedule: Q01DX001 (ip), vehicle: carboxymethylcellulose (CMC)) is 100 % of control.
Regarding `Cc1oc2ccc(O)c(N=Nc3cccc([N+](=O)[O-])c3)c2c1C`, the T/C is, setting by setting: under setting [9], 97 % of control; under setting [11], 101 % of control; under setting [13], 109 % of control.
Consider `C=CCn1c(-c2ccc(N(C)C)cc2)nc2c(Cl)ncnc21`, for which the T/C (dose: 5.0 mg/kg/injection, schedule: Q01DX009 (ip), vehicle: steriod suspending solution) is 97 % of control; the T/C (dose: 9.0 mg/kg/injection, schedule: Q01DX009 (ip), vehicle: steriod suspending solution) is 98 % of control; the T/C (dose: 14.0 mg/kg/injection, schedule: Q01DX009 (ip), vehicle: steriod suspending solution) is 102 % of control; the T/C (dose: 24.0 mg/kg/injection, schedule: Q01DX009 (ip), vehicle: steriod suspending solution) is 95 % of control.
Take `CCCCCCCCN(C)/N=N/c1nc[nH]c1C(=O)OCC`: the T/C was 94 % of control (dose: 50.0 mg/kg/injection, schedule: Q01DX001 (ip), vehicle: other); 105 % of control (dose: 100.0 mg/kg/injection, schedule: Q01DX001 (ip), vehicle: other); 113 % of control (dose: 200.0 mg/kg/injection, schedule: Q01DX001 (ip), vehicle: other); 105 % of control (dose: 400.0 mg/kg/injection, schedule: Q01DX001 (ip), vehicle: other).
In the case of `Cc1cc(C)c(NC(=O)Nc2cccc(F)c2)c(C)c1`, the T/C runs as follows: under setting [8], 96 % of control; under setting [14], 98 % of control; under setting [10], 105 % of control; (dose: 200.0 mg/kg/injection, schedule: Q04DX002 (ip), vehicle: Klucel (hydroxypropylcellulose) (HPC)) 102 % of control; (dose: 400.0 mg/kg/injection, schedule: Q04DX002 (ip), vehicle: Klucel (hydroxypropylcellulose) (HPC)) 102 % of control.
Consider `COc1cc(C=Nc2ccc3c(c2)ncn3C)ccc1N(CCCl)CCCl`, for which, under setting [14], the T/C is 153 % of control.
Turning to `COc1ccc(C(=O)N/N=C/c2ccccc2OC)cc1`, the T/C is, setting by setting: under setting [8], 92 % of control; under setting [10], 100 % of control; under setting [12], 96 % of control.
On to `CC(C)=CCC/C(C)=C/CC/C(C)=C/COC(N)=O`, for which the T/C under setting [9] was 93 % of control, the T/C under setting [11] is 96 % of control and the T/C under setting [13] was 91 % of control.
